Measurements: DBAASP
In brackets after ≈: the same amount, converted by molar mass.

How the values were obtained:
Assay in all cases: ≥ marks a high value that may be exact or a test limit, other limits are often not marked, values filed in µg/mL are converted to µM
[1] = test system: Escherichia coli ATCC 25922
[2] = test system: Staphylococcus aureus LAC
[3] = test system: Candida albicans ATCC 2048
[4] = test system: Candida glabrata ATCC 90525
Candida krusei ATCC 6258 = test system: Candida krusei ATCC 6258
[5] = test system: Candida tropicalis ATCC 20240
[6] = test system: Candida parapsilosis ATCC 20224
[7] = test system: Staphylococcus aureus NCTC 10788
[8] = test system: Enterococcus faecalis NCTC 12697
[9] = test system: Staphylococcus aureus ATCC 12493
[10] = test system: Pseudomonas aeruginosa ATCC 27853
[11] = test system: Escherichia coli NCTC 10418
[12] = test system: Candida albicans NCTC 1467
[13] = test system: Candida albicans KCTC 7270
[14] = test system: Aspergillus flavus KCTC 6905
[15] = test system: Fusarium solani KCTC 6326
[16] = test system: Candida albicans CCARM 14007
[17] = test system: Candida albicans CCARM 14004
[18] = test system: Trichoderma viride KCTC 16992
[19] = test system: Fusarium oxysporum KCTC 16909
[20] = test system: Trichophyton rubrum KCTC 6345
[21] = test system: Trichoderma virens KCTC 16924
[22] = test system: Fusarium verticillioides KCTC 6149
[23] = test system: Candida krusei CCARM 14017
[24] = test system: Candida albicans CCARM 14020
[25] = test system: Colletotrichum gloeosporioides KCTC 6169
[26] = test system: Candida albicans CCARM 14001
[27] = test system: Candida parapsilosis CCARM 14016
[28] = test system: Fusarium graminearum KCTC 16656
[29] = test system: Staphylococcus epidermidis KCTC 1917
[30] = test system: Pseudomonas aeruginosa CCARM 2109
[31] = test system: Pseudomonas aeruginosa KCTC 1637
[32] = test system: Staphylococcus aureus CCARM 3089
[33] = test system: Staphylococcus aureus CCARM 3090
[34] = test system: Staphylococcus aureus CCARM 3095
[35] = test system: Salmonella typhimurium KCTC 1926
[36] = test system: Bacillus subtilis KCTC 3068
[37] = test system: Enterococcus faecium ATCC 51559
[38] = test system: Pseudomonas aeruginosa CCARM 2095
[39] = test system: Pseudomonas aeruginosa 4007
[40] = test system: Pseudomonas aeruginosa 4891
[41] = test system: Listeria monocytogenes KCTC 3710
[42] = test system: Staphylococcus aureus CCARM 3518
[43] = test system: Escherichia coli CCARM 1229
[44] = test system: Escherichia coli CCARM 1238
[45] = test system: Staphylococcus aureus ATCC 25923
[46] = test system: Trichosporon beigelii KCTC 7707
[47] = test system: Bacillus subtilis KCTC 1998

Q: `C[C@H](N)C(=O)N[C@@H](C)C(=O)N[C@@H](C)C(=O)N[C@@H](C)C(=O)N[C@@H](CCCN=C(N)N)C(=O)N[C@@H](CCCN=C(N)N)C(=O)N[C@@H](CCCN=C(N)N)C(=O)N[C@@H](CCCN=C(N)N)C(=O)O` [AAAARRRR] was tested. Which MIC [1] did it give?
A: > 138 µM

Q: What about the MIC [2] of the same molecule?
A: ≥ 138 µM

Q: Which results are given for `CC[C@H](C)[C@H](NC(=O)[C@H](CO)NC(=O)[C@H](CC(C)C)NC(=O)[C@@H](NC(=O)[C@H](CCCN=C(N)N)NC(=O)[C@@H](N)CCC(=O)O)[C@@H](C)CC)C(=O)N[C@@H](CC(C)C)C(=O)N[C@@H](CCCN=C(N)N)C(=O)N[C@@H](Cc1cnc[nH]1)C(=O)N[C@@H](CCC(N)=O)C(=O)N[C@@H](CC(N)=O)C(=O)N[C@@H](CC(C)C)C(=O)N[C@@H](CC(C)C)C(=O)N[C@@H](CCCCN)C(=O)N[C@@H](CCC(=O)O)C(=O)O` [ERILSILRHQNLLKE]?
A: MIC [3]: ≥ 130 µM; MIC [4]: ≥ 110 µM; MIC (Candida krusei ATCC 6258): ≥ 130 µM; MIC [5]: ≥ 73 µM; MIC [6]: ≥ 130 µM

Q: Which MIC [7] does the source give for `CC[C@H](C)[C@H](NC(=O)CN)C(=O)N[C@@H](CCSC)C(=O)N[C@@H](CC(=O)O)C(=O)N[C@H](C(=O)N[C@H](C(=O)N[C@@H](CCCCN)C(=O)N[C@@H](CC(N)=O)C(=O)N[C@@H](C)C(=O)N[C@@H](C)C(=O)N[C@@H](CCCCN)C(=O)N[C@@H](CC(N)=O)C(=O)N[C@@H](CC(C)C)C(=O)N[C@@H](C)C(=O)NCC(=O)N[C@@H](CCC(N)=O)C(=O)N[C@@H](CC(C)C)C(=O)N[C@@H](CC(C)C)C(=O)N[C@@H](CC(=O)O)C(=O)N[C@@H](CCCCN)C(=O)N[C@@H](CC(C)C)C(=O)N[C@@H](CCCCN)C(=O)N[C@H]1CSSC[C@@H](C(=O)O)NC(=O)[C@H](C)NC(=O)[C@H]([C@@H](C)O)NC(=O)[C@H]([C@@H](C)CC)NC(=O)[C@H](CCCCN)NC1=O)C(C)C)[C@@H](C)O` [GIMDTVKNAAKNLAGQLLDKLKCKITAC] here?
A: ≥ 32 µM

Q: What about the MIC [8] of the same molecule?
A: ≥ 128 µM

Q: What about the MIC [9] of the same molecule?
A: ≥ 256 µM

Q: What about the MIC [10] of the same molecule?
A: > 512 µM

Q: And the MIC [11]?
A: ≥ 32 µM

Q: And the MIC [12]?
A: ≥ 256 µM

Q: Which MIC [13] does the source give for `NCCCC[C@H](NC(=O)[C@H](CCCCN)NC(=O)[C@H](Cc1cnc[nH]1)NC(=O)[C@H](CCCCN)NC(=O)[C@H](CCCCN)NC(=O)[C@H](Cc1cnc[nH]1)NC(=O)[C@H](CCCCN)NC(=O)[C@H](CCCCN)NC(=O)[C@H](Cc1cnc[nH]1)NC(=O)[C@H](CCCCN)NC(=O)[C@H](CCCCN)NC(=O)[C@H](Cc1cnc[nH]1)NC(=O)[C@H](CCCCN)NC(=O)[C@H](CCCCN)NC(=O)[C@H](Cc1cnc[nH]1)NC(=O)[C@H](CCCCN)NC(=O)[C@H](CCCCN)NC(=O)[C@@H](N)Cc1cnc[nH]1)C(N)=O` [HKKHKKHKKHKKHKKHKK] here?
A: 16 µM (≈ 38 µg/mL)

Q: What about the MIC [14] of the same molecule?
A: 4 µM (≈ 9.51 µg/mL)

Q: What about the MIC [15] of the same molecule?
A: 2 µM (≈ 4.76 µg/mL)

Q: What about the MIC [16] of the same molecule?
A: 16 µM (≈ 38 µg/mL)

Q: What about the MIC [17] of the same molecule?
A: 16 µM (≈ 38 µg/mL)

Q: What about the MIC [18] of the same molecule?
A: 2 µM (≈ 4.76 µg/mL)

Q: And the MIC [19]?
A: 2 µM (≈ 4.76 µg/mL)

Q: And the MIC [20]?
A: 8 µM (≈ 19 µg/mL)

Q: And the MIC [21]?
A: 8 µM (≈ 19 µg/mL)

Q: And the MIC [22]?
A: 2 µM (≈ 4.76 µg/mL)

Q: What about the MIC [23] of the same molecule?
A: 4 µM (≈ 9.51 µg/mL)

Q: What about the MIC [24] of the same molecule?
A: 16 µM (≈ 38 µg/mL)

Q: And the MIC [25]?
A: 1 µM (≈ 2.38 µg/mL)

Q: What about the MIC [26] of the same molecule?
A: 16 µM (≈ 38 µg/mL)

Q: What about the MIC [27] of the same molecule?
A: 16 µM (≈ 38 µg/mL)

Q: What about the MIC [28] of the same molecule?
A: 8 µM (≈ 19 µg/mL)

Q: Which results are given for `CC[C@H](C)[C@H](NC(=O)[C@H](Cc1ccccc1)NC(=O)[C@H](CCCN=C(N)N)NC(=O)[C@@H](N)CCCCN)C(=O)N[C@@H](CCCCN)C(=O)N[C@@H](Cc1c[nH]c2ccccc12)C(=O)N[C@@H](Cc1ccc(O)cc1)C(=O)N[C@@H](CC(N)=O)C(=O)N[C@@H](C)C(=O)N[C@@H](Cc1c[nH]c2ccccc12)C(=O)N[C@@H](CC(N)=O)C(=O)N[C@@H](CCC(=O)O)C(=O)N[C@@H](CCCCN)C(=O)N[C@@H](CCCN=C(N)N)C(=O)N[C@@H](CCCN=C(N)N)C(=O)N[C@H](C(=O)N[C@@H](Cc1ccc(O)cc1)C(N)=O)C(C)C` [KRFIKWYNAWNEKRRVY]?
A: MIC [29]: 8 µM (≈ 18.9 µg/mL); MIC [30]: 16 µM (≈ 37.7 µg/mL); MIC [31]: 16 µM (≈ 37.7 µg/mL); MIC [32]: 8 µM (≈ 18.9 µg/mL); MIC [33]: 8 µM (≈ 18.9 µg/mL); MIC [34]: 8 µM (≈ 18.9 µg/mL); MIC [35]: 4 µM (≈ 9.43 µg/mL); MIC [36]: 8 µM (≈ 18.9 µg/mL); MIC [37]: 8 µM (≈ 18.9 µg/mL); MIC [38]: 4 µM (≈ 9.43 µg/mL)

Q: With `CC[C@H](C)[C@H](NC(=O)CNC(=O)[C@H](CCC(N)=O)NC(=O)[C@H](Cc1ccccc1)NC(=O)[C@@H](NC(=O)[C@H](CCCCN)NC(=O)[C@H](CCCCN)NC(=O)[C@H](CC(C)C)NC(=O)[C@H](C)NC(=O)[C@H](CC(N)=O)NC(=O)[C@H](CC(C)C)NC(=O)[C@@H](N)Cc1c[nH]c2ccccc12)C(C)C)C(=O)N[C@@H](Cc1cnc[nH]1)C(=O)N[C@@H](CCC(=O)O)C(=O)N[C@@H](C)C(=O)N[C@H](C(=O)N[C@@H](CCCCN)C(=O)N[C@@H](CC(C)C)C(=O)N[C@H](C(=O)N[C@@H](Cc1c[nH]c2ccccc12)C(=O)N[C@@H](CC(N)=O)C(=O)N[C@@H](Cc1c[nH]c2ccccc12)C(=O)N[C@H](C(=O)N[C@@H](CCC(N)=O)C(N)=O)C(C)C)[C@@H](C)CC)[C@@H](C)CC` [WLNALKKVFQGIHEAIKLIWNWVQ] as the molecule, how does the MIC [13] read?
A: ≥ 32 µM

Q: And the MIC [1]?
A: 16 µM (≈ 47 µg/mL)

Q: What about the MIC [39] of the same molecule?
A: ≥ 64 µM

Q: What about the MIC [40] of the same molecule?
A: ≥ 64 µM

Q: What about the MIC [41] of the same molecule?
A: ≥ 32 µM

Q: And the MIC [42]?
A: ≥ 32 µM

Q: And the MIC [43]?
A: ≥ 32 µM

Q: And the MIC [33]?
A: ≥ 32 µM

Q: What about the MIC [10] of the same molecule?
A: 16 µM (≈ 47 µg/mL)

Q: And the MIC [44]?
A: ≥ 32 µM

Q: What about the MIC [35] of the same molecule?
A: 16 µM (≈ 47 µg/mL)

Q: What about the MIC [45] of the same molecule?
A: 32 µM (≈ 93.9 µg/mL)

Q: What about the MIC [46] of the same molecule?
A: ≥ 32 µM

Q: What about the MIC [47] of the same molecule?
A: ≥ 32 µM
